Measured values as given in US20250213561A1, “SELECTIVE HYPOTHALAMUS PERMEABLE HDAC6 INHIBITORS FOR TREATMENT OF LEPTIN-RESISTANT OBESITY” (The Children’s Medical Center Corporation, priority 2022, published 2025).

Experiments:
HDAC6 in AgRP neurons = assay: DIO mice with HDAC6 depleted in AgRP neurons (HDAC6^Agrp-Δ); type: in vivo
Procedure: Design, validation, and stereotaxic injection of AAV viral vector carrying the guide RNAs targeting the mouse HDAC6 genomic locus. Three designed sgRNAs were concatenated and constructed into an AAV vector carrying a cre-enabled mCherry fluorescent marker.
(§1) Following the bilateral injection of AAV-sgHDAC6 into the arcuate nucleus of Agrp-ires-cre::LSL-Cas9-GFP (Agrp-Cre^+/−::Cas9^+/−) or control LSL-Cas9-GFP (Cas9^+/−) mice, immunostaining to detect the expression of mCherry and GFP was performed. AAV-sg-HDAC6 injected Agrp-Cre^+/−::Cas9^+/− (HDAC6^Agrp-Δ) and Cas9^+/−(HDAC6^WT) DIO mice (n=7 for each group) were fasted for 24 hours, and injected with ACY775 (10 mg/kg. i.p). Hourly total dark cycle food intake (g) (n=7 for each group) of these mice after ACY775 injection was measured. Body weight of AAV-sg-HDAC6 injected HDAC6^Agrp-Δ (n=11) and HDAC6^WT (n=6) mice were measured during 3 weeks of ACY775 (10 mg/kg/day, i.p.) treatment. Daily average food intake of HDAC6^Agrp-Δ (n=11) and HDAC6^WT (n=6) mice was measured during 3 weeks of ACY775 (10 mg/kg/day, i.p.) treatment. 24-hour food intake average of HDAC6^Agrp-Δ and HDAC6^WT mice during the 3 weeks of ACY775 treatment was assessed. Serum leptin level (ng/ml) of HDAC6^Agrp-Δ and HDAC6^WT mice after 2 weeks of ACY775 treatment (n=13 for HDAC6^WT and n=18 for HDAC6^Agrp-Δ) was measured. Lean mass (g); fat mass; and fat percentage (%) of HDAC6^Agrp-Δ and HDAC6^WT DIO mice after 3 weeks of ACY775 treatment was measured by DEXA scan. The HDAC6 inhibitor responsive neurons in the dorsomedial hypothalamus (DMH) were assessed. Immunostaining and quantification of c-Fos expression was performed in the DMH of DIO mice following one-time ACY775 treatment (10 mg/kg, i.p.).

HDAC6 = HDAC6 (Mus musculus (Mouse), UniProt Q9Z2V5); assay: LepRb acetyl-lysine immunoblotting in transfected HEK293 cells; type: cell-based; details: 200 nM, 0.5-3 h
Chain of HDAC6 (Q9Z2V5 whole entry): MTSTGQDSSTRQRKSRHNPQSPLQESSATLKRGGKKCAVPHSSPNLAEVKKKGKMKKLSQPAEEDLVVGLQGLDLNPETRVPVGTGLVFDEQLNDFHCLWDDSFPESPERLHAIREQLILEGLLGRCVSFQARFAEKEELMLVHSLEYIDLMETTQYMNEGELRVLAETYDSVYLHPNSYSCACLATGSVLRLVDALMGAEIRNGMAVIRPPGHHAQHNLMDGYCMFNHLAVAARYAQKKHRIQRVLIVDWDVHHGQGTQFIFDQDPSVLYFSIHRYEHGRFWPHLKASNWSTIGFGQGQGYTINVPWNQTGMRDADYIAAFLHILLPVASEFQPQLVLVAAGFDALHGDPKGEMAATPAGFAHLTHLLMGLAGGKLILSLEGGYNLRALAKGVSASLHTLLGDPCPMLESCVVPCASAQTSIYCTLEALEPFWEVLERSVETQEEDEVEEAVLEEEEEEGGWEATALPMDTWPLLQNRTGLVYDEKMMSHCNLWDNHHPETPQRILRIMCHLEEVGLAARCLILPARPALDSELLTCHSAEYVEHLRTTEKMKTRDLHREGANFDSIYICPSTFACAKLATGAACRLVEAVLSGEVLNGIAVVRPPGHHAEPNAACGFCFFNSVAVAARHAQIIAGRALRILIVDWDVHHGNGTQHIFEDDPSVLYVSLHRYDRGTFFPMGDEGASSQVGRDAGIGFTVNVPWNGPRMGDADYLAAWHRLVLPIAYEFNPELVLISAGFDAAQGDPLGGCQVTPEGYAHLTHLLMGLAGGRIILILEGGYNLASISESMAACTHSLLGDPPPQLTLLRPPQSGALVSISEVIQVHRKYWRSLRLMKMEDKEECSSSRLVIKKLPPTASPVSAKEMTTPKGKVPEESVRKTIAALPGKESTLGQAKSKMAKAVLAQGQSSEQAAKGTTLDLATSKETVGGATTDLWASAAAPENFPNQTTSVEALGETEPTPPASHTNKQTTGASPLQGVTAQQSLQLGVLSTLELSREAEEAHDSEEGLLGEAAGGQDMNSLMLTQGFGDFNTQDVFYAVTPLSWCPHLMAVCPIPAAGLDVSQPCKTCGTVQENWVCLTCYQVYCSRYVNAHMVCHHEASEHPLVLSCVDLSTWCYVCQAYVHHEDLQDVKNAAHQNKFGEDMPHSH
Procedure: HEK293 cells were transfected with the plasmids and were treated with vehicle or ACY775. Subsequently Flag immunoprecipitation was used to pull down LepRb followed by Ac^Lys or Flag immunoblotting.
To test whether HDAC6 can deacetylate LepRb, HEK293 cells were transfected with plasmids (LepRb-Flag, HA-p300 and HDAC6-myc). LepRb was immunoprecipitated by Flag antibodies, which was followed by acetyl-lysine (Ac^Lys) or immunoblottings.
Next, cells were transfected with plasmids (LepRb-Flag, HA-p300 and HDAC6-myc) and subsequently treated with ACY775 ([…]) for 0.5, 1, 2 and 3 h. […] Next, to investigate whether HDAC6 has any effect on LepRb tyrosine phosphorylation, which is indicative of LepRb activation, HEK 293 cells were transfected with LepRb and HDAC6-Myc plasmids in the indicated order and the cells stimulated with leptin (200 ng/ml) for 10 and 60 minutes. The Flag immunoprecipitates were exposed to phospho-tyrosine (p^Tyr) immunoblotting.

DMH neurons = assay: c-Fos immunostaining in DMH of DIO mice; type: in vivo; details: fasting, acute 10 mg/kg i.p.
Procedure: as §1, with “Immunostaining and quantification of c-Fos expression was performed in the DMH of DIO mice following one-time ACY775 treatment (10 mg/kg, i.p.).” left out

[1] = tested on: HDAC6 in ACY775-responsive DMH neurons; assay: TRAP2-HDAC6^DMH-Δ DIO mice; type: in vivo; details: TRAP2-HDAC6^DMH-Δ and TRAP2-HDAC6^WT DIO mice
Procedure: Coordinates used for aav-sg-HDAC6 injection into the DMH of c-Fos-iCreER::LSL-Cas9-GFP (TRAP2-Cas9) mouse., mCherry immunostaining in the aav-sg-HDAC6 injected TRAP2-cas9 obese mice, which were treated three weeks earlier with one dose of ACY775 (10 mg/kg, i.p.) (TRAP2-HDAC6^DMH-Δ) or vehicle (TRAP2-HDAC6^WT), followed by 4-Hydroxytamoxifen (4-OHT) injection, were assessed. TRAP2-HDAC6^WT and TRAP2-HDAC6^DMH-Δ mice were fasted 24-h and treated with ACY775 (10 mg/kg, i.p.). Hourly and total dark cycle food intake (g) (n=4 for each group) was determined for these mice after ACY775 injection. Daily body weight of TRAP2-HDAC6^DMH-Δ(n=10) or TRAP2-HDAC6^WT(n=11) DIO mice was measured during 2 weeks of ACY775 (10 mg/kg/day, i.p) treatment. Daily average food intake of TRAP2-HDAC6^DMH-Δ(n=10) or TRAP2-HDAC6^WT(n=11) DIO mice was measured during 2 weeks of ACY775 treatment.
To investigate whether activity of other neuronal populations are altered after HDAC6 inhibitor treatment, c-fos staining was performed in the whole brain of DIO mice, which were acutely treated with ACY775. […] Some of the DMH neurons express high levels of LepRb and involved in regulation of appetite […]. Whether HDAC6 in these ACY775-responsive DMH neurons is required or involved in any way in mediating the appetite suppressing and body weight lowering effects of ACY775 was then tested. […]

O=C(NO)c1cnc(NC2(c3cccc(F)c3)CCCCC2)nc1 [ACY775, 2-[[1-(3-fluorophenyl)cyclohexyl]amino]-N-hydroxy-5-pyrimidinecarboxamide]
suppression of food intake after a single dose (HDAC6 in AgRP neurons; HDAC6^Agrp-Δ DIO mice, 10 mg/kg i.p.): almost complete resistance to ACY755-induced suppression of food intake
anti-obesity effects on chronic treatment (HDAC6 in AgRP neurons; HDAC6^Agrp-Δ versus HDAC6^WT DIO mice): Significantly attenuated effects
deacetylation of LepRb (HDAC6): can completely block deactylation of LepRb
c-fos positive cell number in the DMH (DMH neurons): major increase in c-fos positive cell number
body weight and food intake, two weeks [1]: lost weight and food intake was reduced equally in both groups
food intake after a dose in 24 h fasted mice [1]: consumed similar but small amount of food
